Our source for the EC50 and LC50 values is ChEMBL document CHEMBL1145695, “Biologically active acylglycerides from the berries of saw-palmetto (Serenoa repens)” (J Nat Prod, 1997).

The LC50 is the concentration lethal to half of the exposed cells or organisms.

Molecules are shown by their SMILES. Converted amounts (≈) assume the structure as drawn.

One data set relates to PC-3. Kind of data set: Cytotoxicity against human PC3 cells after 7 days by MTT assay. It is filed as functional. Conditions: PC-3, 168 h, read-out: ED50 (the source's name).
The subject of the next data set is A498. In words: Cytotoxicity against human A498 cells after 7 days by MTT assay. Conditions: A498, 168 h, read-out: ED50 (the source's name). It is filed as functional. (Formazan colour is commonly taken as a measure of viable cells.)
The subject of a further data set is MIA PaCa-2. Kind of data set: Cytotoxicity against human MIAPaCa2 cells after 7 days by MTT assay. As to conditions: MIA PaCa-2, 168 h, read-out: ED50 (the source's name). In kind it is functional.
Data set [1] is described as follows: Toxicity against brine shrimp. In kind it is organism-based. Conditions: artemia, in vivo.

For `COc1cccc2c1C(=O)c1c(O)c3c(c(O)c1C2=O)C[C@@](O)(C(=O)CO)C[C@@H]3O[C@H]1C[C@H](N)[C@H](O)[C@H](C)O1` [DOXORUBICIN], the EC50 was 0.0119 µg/mL (≈ 0.0219 µM) in the data set on PC-3, 0.0122 µg/mL (≈ 0.0224 µM) with A498 and 0.0392 µg/mL (≈ 0.0721 µM) with MIA PaCa-2.
With `CCCCCCCCCCCCCC(=O)OCC(O)CO` (stereo unspecified), the EC50 in the data set with PC-3 turned out to be 8.84 µg/mL (≈ 29.2 µM); in the data set on A498, 3.58 µg/mL (≈ 11.8 µM); in the data set with MIA PaCa-2 it was 1.87 µg/mL (≈ 6.18 µM). In data set [1], this compound yielded an LC50 of 53.3 µg/mL (≈ 176 µM).
For `CCCCCCCCCCCC(=O)OCC(O)CO` (stereo unspecified) [GLYCEROL MONOLAURATE] the same measures were 23.3 µg/mL (≈ 84.8 µM), 3.77 µg/mL (≈ 13.7 µM), 2.33 µg/mL (≈ 8.49 µM) and 79.2 µg/mL (≈ 289 µM).
